The term Ki denotes the equilibrium dissociation constant of an inhibitor or competing ligand from its target. A lower Ki goes with tighter binding.

Assay [1] has as its target T1, Plasmin (Homo sapiens, UniProt P00747). Put plainly: Display-phage binding to plasmin target (specificity). The conditions noted are these: compared to the parental phage display LACI-K1.
Another assay deals with Thrombin (Homo sapiens, UniProt P00734). In words: Display-phage binding to thrombin target (specificity). The following applies: compared to the parental phage display LACI-K1.
The subject of assay [2] is Trypsin. Put plainly: Display-phage binding to trypsin target (specificity). The following applies: compared to the parental phage display LACI-K1.
Assay [3] deals with T2, plasma Kallikrein (Homo sapiens, UniProt P03952). Put plainly: Display-phage binding to human plasma kallikrein-agarose beads. Also on record: The light chain (248 residues) carries the catalytic site; purchased Calbiochem #420302. As to the method: This method is highly sensitive because the genetic packages can be amplified. We obtain at least semiquantitative values for the binding constants by use of a pH step gradient.
The overall scheme for selecting a LACI(K1) variant to bind to a given protease involves incubation of the phage-display library with the kallikrein-beads of interest in a buffered solution (PBS containing 1 mg/ml BSA) followed by washing away the unbound and poorly retained display-phage variant with PBS containing 0.1% Tween 20. Kallikrein beads were made by coupling human plasma Kallikrein (Calbiochem, San Diego, Calif., #420302) to agarose beads using Reactigel (6×) (Pierce, Rockford, Ill., #202606). […]
The neutralized eluted display-phage can be either used: • i) to inoculate an F^+ strain of E. coli to generate a new display-phage stock, to be used for subsequent rounds of selection (so-called conventional screening), or • ii) be used directly for another immediate round of selection with the protease beads (so-called quick screening). Typically, three rounds of either method, or a combination of the two, are performed to give rise to the final selected display-phage from which a representative number are sequenced and analyzed for binding properties either as pools of display-phage or as individual clones.
Target sequence in this assay (P03952 391-638 limits assumed): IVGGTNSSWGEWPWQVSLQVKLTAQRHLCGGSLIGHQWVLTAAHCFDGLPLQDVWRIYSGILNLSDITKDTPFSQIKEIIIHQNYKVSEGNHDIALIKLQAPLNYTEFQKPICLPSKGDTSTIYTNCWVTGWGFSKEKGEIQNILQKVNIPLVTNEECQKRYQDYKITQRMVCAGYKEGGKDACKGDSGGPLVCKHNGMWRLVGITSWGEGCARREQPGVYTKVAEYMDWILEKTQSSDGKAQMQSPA
Target sequence in this assay (P03952 20-390 limits assumed): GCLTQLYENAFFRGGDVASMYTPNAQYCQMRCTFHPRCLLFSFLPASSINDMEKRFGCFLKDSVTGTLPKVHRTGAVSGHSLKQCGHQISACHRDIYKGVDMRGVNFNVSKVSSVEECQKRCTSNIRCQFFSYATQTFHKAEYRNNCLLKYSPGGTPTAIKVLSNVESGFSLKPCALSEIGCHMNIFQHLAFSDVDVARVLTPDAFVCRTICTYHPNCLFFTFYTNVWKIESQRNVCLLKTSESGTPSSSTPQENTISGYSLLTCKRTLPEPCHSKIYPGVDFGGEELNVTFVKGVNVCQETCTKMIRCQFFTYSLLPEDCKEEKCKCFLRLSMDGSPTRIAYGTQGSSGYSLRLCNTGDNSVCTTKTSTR

Assay [4] concerns the target T1, Plasmin. Put plainly: biochemical. An excerpt: (§1) A second method appropriate for measuring the affinity of inhibitors for enzymes is to measure the ability of the inhibitor to slow the action of the enzyme. This method requires, depending on the speed at which the enzyme cleaves substrate and the availability of chromogenic or fluorogenic substrates, tens of micrograms to milligrams of relatively pure inhibitor.

Another assay addresses pKA (plasma kallikrein) (Homo sapiens, UniProt P03952). Put plainly: biochemical.
Description: as §1

In assay [5] the target is T2, plasma Kallikrein. The conditions noted are these: ANGL87; cited from earlier work.
Target sequence in this assay (P03952 20-390): as the sequence (P03952 20-390 limits assumed) above
Target sequence in this assay (P03952 391-638): as the sequence (P03952 391-638 limits assumed) above
For assay [6], the system named is Trypsin. The following applies: ANGL87; cited from earlier work.

Bridge positions count the residues as written; N and C are the ends. Ends that are not written are not given here. * marks the point of attachment. CH2F = FC*

Chain of pKA (plasma kallikrein) (P03952 391-638 limits assumed): as above
Chain of pKA (plasma kallikrein) (P03952 20-390 limits assumed): as the sequence (P03952 20-390 limits assumed) above
T1 sequence (P00747 581-810 limits assumed, species assumed): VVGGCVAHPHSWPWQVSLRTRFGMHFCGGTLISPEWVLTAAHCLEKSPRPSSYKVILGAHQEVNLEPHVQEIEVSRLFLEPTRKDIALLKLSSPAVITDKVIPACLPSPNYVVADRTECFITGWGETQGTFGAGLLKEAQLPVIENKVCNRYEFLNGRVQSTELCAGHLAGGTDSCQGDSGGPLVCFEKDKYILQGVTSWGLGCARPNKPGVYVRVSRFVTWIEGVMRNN
T1 sequence (P00747 97-580 partner limits assumed, species assumed): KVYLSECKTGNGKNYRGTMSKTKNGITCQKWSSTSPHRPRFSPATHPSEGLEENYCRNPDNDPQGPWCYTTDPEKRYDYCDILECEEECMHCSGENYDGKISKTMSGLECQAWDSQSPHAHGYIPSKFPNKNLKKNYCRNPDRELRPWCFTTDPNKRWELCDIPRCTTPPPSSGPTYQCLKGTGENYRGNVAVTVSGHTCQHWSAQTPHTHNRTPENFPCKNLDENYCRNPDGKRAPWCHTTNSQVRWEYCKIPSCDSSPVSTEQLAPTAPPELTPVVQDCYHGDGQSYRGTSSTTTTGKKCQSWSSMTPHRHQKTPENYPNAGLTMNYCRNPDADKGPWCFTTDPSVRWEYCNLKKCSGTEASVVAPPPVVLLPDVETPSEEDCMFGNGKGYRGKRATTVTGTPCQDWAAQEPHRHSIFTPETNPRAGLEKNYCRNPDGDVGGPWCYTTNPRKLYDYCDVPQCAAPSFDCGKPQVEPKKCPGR

As for “bovine pancreatic trypsin inhibitor [BPTI]”, the “relative binding of phage display clones, target Plasmin” value at Plasmin [1] is “(88)^4”. Moreover, the “relative binding of phage display clones, target Thrombin” value at Thrombin is listed as “(1.1)”. Further, the “relative binding of phage display clones, target Trypsin” value in the assay with Trypsin [2] is on record as “(0.3)”. The “relative binding of phage display clones, target Trypsin, two washes” value in the assay with Trypsin [2] (two washes) is listed as “(0.8)”. Also, on plasma Kallikrein [3] (compared to the parental phage display LACI-K1), the “relative binding of phage display clones, target Kallikrein” value is “(1.7)”. In addition, the “Relative Binding” value on plasma Kallikrein [3] (fraction bound relative to the parental display-phage LACI(K1)) is 6.0.

On to “MHSFCAFKADDGHCKANHQRFFFNIFTRQCEEFSYGGCGGNQNRFESLEECKKMCTRD (disulfide 5-55, 14-38, 30-51) [KKII/3#6]”, for which the Ki on Plasmin [4] is 10 µM; at pKA (plasma kallikrein) it was less than 0.0005 µM. For the same substance, on pKA (plasma kallikrein) (stated in words), the Ki for kallikrein result is on record as “nanomolar range”. Also, the “Ki for kallikrein relative to wild-type LACI and BPTI” value on pKA (plasma kallikrein) (versus both wild-type LACI and BPTI) is on record as “over 100 times”.

In the case of Ala-Phe-Lys-CH2F, the “inhibition of plasma kallikrein” value at plasma Kallikrein [5] is recorded as “active-centre-directed inhibitor”. The inhibition of trypsin entry in the assay on Trypsin [6] is reported as “active-centre-directed inhibitor”.

(Values after US8663629B2, “Kallikrein-binding “kunitz domain” proteins and analogues thereof” (Dyax Corp., priority 1994, dated 2014).)
